Experimental data from patent publication US9637485B2, “6,7-dihydrobenzo[a]quinolizin-2-one derivatives for the treatment and prophylaxis of hepatitis B virus infection” (Hoffmann-La Roche Inc., priority 2014, dated 2017).
Like-named read-outs stand apart in the source and are kept apart here.

Tested on: HBsAg
Test: HBsAg assay (CLIA of secreted HBsAg in HepG2.2.15 culture supernatant)
Assay type: cell-based, HBV
Experimental: HepG2.2.15 cells (Acs et al. Proc Natl Acad Sci USA, 84, (1987), 4641-4), a constitutively HBV-expressing cell line were cultured in DMEM+Glutamax-I medium (Invitrogen, Carlsbad, Calif., USA, Catalog number: 11320082), supplemented with 10% fetal bovine serum (Invitrogen, Catalog number: 10099141) and G418 (Invitrogen, Catalog number: 10131027) at a final concentration of 200 mg/L and maintained in 5% CO2 at 37° C.
HepG2.2.15 cells were seeded in duplicate into white, 96-well plates at 1.5×10^4 cells/well. The cells were treated with a three-fold serial dilution series of the compounds in DMSO. The final DMSO concentration in all wells was 1% and DMSO was used as no drug control.
The HBsAg chemiluminescence immunoassay (CLIA) kit (Autobio Diagnostics Co., Zhengzhou, China, Catalog number: CL0310-2) was used to measure the levels of secreted HBV antigens semi-quantitatively. For the detection 50 μL/well culture supernatant was used and HBsAg was quantified using HBsAg chemiluminescence immunoassay (CLIA) kit (Autobio Diagnostics Co., Zhengzhou, China, Catalog number: CL0310-2), 50 μl of the supernatant was transferred to the CLIA assay plate and 50 μL of enzyme conjugate reagent was added into each well. The plates were sealed and gently agitated for 1 hour at room temperature. The supernatant-enzyme-mixture was discarded and wells were washed 6 times with 300 μL of PBS. The residual liquid was removed by plating the CLIA plate right side down on absorbent tissue paper. 25 μL of substrates A and B were added to each well. Luminance was measured using a luminometer (Mithras LB 940 Multimode Microplate Reader) after 10 minutes incubation. Dose-response curves were generated and the IC50 value was extrapolated by using the E-WorkBook Suite (ID Business Solutions Ltd., Guildford, UK). The IC50 was defined as the compound concentration (or conditioned media log dilution) at which HBsAg secretion was reduced by 50% compared to the no drug control.

[1] = Hepatitis B virus, HepG2.2.15, read-out: IC50 (HBsAg secretion reduced by 50% compared to the no drug control), HepG2.2.15 cells, culture supernatant, HBsAg CLIA
[2] = read-out: IC50 (HBsAg secretion reduced by 50% compared to the no drug control), HepG2.2.15 cells, culture supernatant, HBsAg CLIA

| Structure (SMILES) | IC50 [1] [nM] | IC50 [2] [nM] |
| --- | --- | --- |
| COCCCOc1cc2c(cc1OC)-c1cc(=O)c(C(=O)O)cn1C(C(C)(C)CO)C2 (racemic) [Example 24, 6-(2-Hydroxy-1,1-dimethyl-ethyl)-10-methoxy-9-(3-methoxypropoxy)-2-oxo-6,7-dihydrobenzo[a]quinolizine-3-carboxylic acid] | 5 |  |
| COCCCOc1cc2c(cc1OC)-c1cc(=O)c(C(=O)O)cn1C(C(C)(C)COC)C2 (racemic) [Example 27, 10-Methoxy-6-(2-methoxy-1,1-dimethyl-ethyl)-9-(3-methoxypropoxy)-2-oxo-6,7-dihydrobenzo[a]quinolizine-3-carboxylic acid] | 5 |  |
| COCCCOc1cc2c(cc1Cl)-c1cc(=O)c(C(=O)O)cn1C(C(C)(C)COC)C2 (racemic) [Example 30, 10-Chloro-6-(2-methoxy-1,1-dimethyl-ethyl)-9-(3-methoxypropoxy)-2-oxo-6,7-dihydrobenzo[a]quinolizine-3-carboxylic acid] | 4 |  |
| COCCCOc1cc2c(cc1OC)-c1cc(=O)c(C(=O)O)cn1[C@H](C(C)(C)O)C2 (single isomer, unassigned) [Example 21, (+)-6-(1-Hydroxy-1-methyl-ethyl)-10-methoxy-9-(3-methoxypropoxy)-2-oxo-6,7-dihydrobenzo[a]quinolizine-3-carboxylic acid] |  | 41 |
| COCCCOc1cc2c(cc1OC)-c1cc(=O)c(C(=O)O)cn1C(C(C)(C)O)C2 (single isomer, unassigned) [Example 22, (−)-6-(1-hydroxy-1-methyl-ethyl)-10-methoxy-9-(3-methoxypropoxy)-2-oxo-6,7-dihydrobenzo[a]quinolizine-3-carboxylic acid] |  | 4020 |
| COCCCOc1cc2c(cc1OC)-c1cc(=O)c(C(=O)O)cn1C(C(C)(C)CO)C2 (single isomer, unassigned) [Example 26, (−)-6-(2-hydroxy-1,1-dimethyl-ethyl)-10-methoxy-9-(3-methoxypropoxy)-2-oxo-6,7-dihydrobenzo[a]quinolizine-3-carboxylic acid] |  | 84 |
| COCCCOc1cc2c(cc1OC)-c1cc(=O)c(C(=O)O)cn1[C@H](C(C)(C)COC)C2 (single isomer, unassigned) [Example 29, (−)-10-methoxy-6-(2-methoxy-1,1-dimethyl-ethyl)-9-(3-methoxypropoxy)-2-oxo-6,7-dihydrobenzo[a]quinolizine-3-carboxylic acid] |  | 396 |
| COCCCOc1cc2c(cc1Cl)-c1cc(=O)c(C(=O)O)cn1C(C(C)(C)COC)C2 (single isomer, unassigned) [Example 31, (+)-10-Chloro-6-(2-methoxy-1,1-dimethyl-ethyl)-9-(3-methoxypropoxy)-2-oxo-6,7-dihydrobenzo[a]quinolizine-3-carboxylic acid] |  | 3 |
| COCCCOc1cc2c(cc1Cl)-c1cc(=O)c(C(=O)O)cn1C(C(C)(C)COC)C2 (single isomer, unassigned) [Example 32, (−)-10-chloro-6-(2-methoxy-1,1-dimethyl-ethyl)-9-(3-methoxypropoxy)-2-oxo-6,7-dihydrobenzo[a]quinolizine-3-carboxylic acid] |  | 8270 |
| COCC(C)(C)C1Cc2cc(OCc3ccccc3)c(OC)cc2-c2cc(=O)c(C(=O)O)cn21 (centres unmarked) [Example 1, 9-Benzyloxy-10-methoxy-6-(2-methoxy-1,1-dimethyl-ethyl)-2-oxo-6,7-dihydrobenzo[a]quinolizine-3-carboxylic acid] | 7 |  |
| COCC(C)(C)C1Cc2cc(OC)c(OC)cc2-c2cc(=O)c(C(=O)O)cn21 (centres unmarked) [Example 2, 9,10-Dimethoxy-6-(2-methoxy-1,1-dimethyl-ethyl)-2-oxo-6,7-dihydrobenzo[a]quinolizine-3-carboxylic acid] | 34 |  |
| COCC(C)(C)C1Cc2cc(OCC(F)(F)F)c(OC)cc2-c2cc(=O)c(C(=O)O)cn21 (centres unmarked) [Example 3, 10-Methoxy-6-(2-methoxy-1,1-dimethyl-ethyl)-2-oxo-9-(2,2,2-trifluoroethoxy)-6,7-dihydrobenzo[a]quinolizine-3-carboxylic acid] | 9 |  |
| COCC(C)(C)C1Cc2cc(OCCCN3CCOCC3)c(OC)cc2-c2cc(=O)c(C(=O)O)cn21 (centres unmarked) [Example 4, 10-Methoxy-6-(2-methoxy-1,1-dimethyl-ethyl)-9-(3-morpholinopropoxy)-2-oxo-6,7-dihydrobenzo[a]quinolizine-3-carboxylic acid] | 14 |  |
| COCC(C)(C)C1Cc2cc(OCCCCCCO)c(OC)cc2-c2cc(=O)c(C(=O)O)cn21 (centres unmarked) [Example 5, 9-(6-Hydroxyhexoxy)-10-methoxy-6-(2-methoxy-1,1-dimethyl-ethyl)-2-oxo-6,7-dihydrobenzo[a]quinolizine-3-carboxylic acid] | 6 |  |
| COCC(C)(C)C1Cc2cc(OCCCO)c(OC)cc2-c2cc(=O)c(C(=O)O)cn21 (centres unmarked) [Example 6, 9-(3-Hydroxypropoxy)-10-methoxy-6-(2-methoxy-1,1-dimethyl-ethyl)-2-oxo-6,7-dihydrobenzo[a]quinolizine-3-carboxylic acid] | 22 |  |
| COCC(C)(C)C1Cc2cc(OCC(C)(C)CO)c(OC)cc2-c2cc(=O)c(C(=O)O)cn21 (centres unmarked) [Example 7, 9-(3-Hydroxy-2,2-dimethyl-propoxy)-10-methoxy-6-(2-methoxy-1,1-dimethyl-ethyl)-2-oxo-6,7-dihydrobenzo[a]quinolizine-3-carboxylic acid] | 9 |  |
| CCOCCOc1cc2c(cc1OC)-c1cc(=O)c(C(=O)O)cn1C(C(C)(C)COC)C2 (centres unmarked) [Example 8, 9-(2-Ethoxyethoxy)-10-methoxy-6-(2-methoxy-1,1-dimethyl-ethyl)-2-oxo-6,7-dihydrobenzo[a]quinolizine-3-carboxylic acid] | 12 |  |
| COCC(C)(C)C1Cc2cc(OCC3CC3)c(OC)cc2-c2cc(=O)c(C(=O)O)cn21 (centres unmarked) [Example 9, 9-(Cyclopropylmethoxy)-10-methoxy-6-(2-methoxy-1,1-dimethyl-ethyl)-2-oxo-6,7-dihydrobenzo[a]quinolizine-3-carboxylic acid] | 4 |  |
| COCC(C)(C)C1Cc2cc(OCCCSC)c(OC)cc2-c2cc(=O)c(C(=O)O)cn21 (centres unmarked) [Example 10, 10-Methoxy-6-(2-methoxy-1,1-dimethyl-ethyl)-9-(3-methylsulfanylpropoxy)-2-oxo-6,7-dihydrobenzo[a]quinolizine-3-carboxylic acid] | 6 |  |
| COCC(C)(C)C1Cc2cc(OCCCN3CCCC3)c(OC)cc2-c2cc(=O)c(C(=O)O)cn21 (centres unmarked) [Example 11, 10-Methoxy-6-(2-methoxy-1,1-dimethyl-ethyl)-2-oxo-9-(3-pyrrolidin-1-ylpropoxy)-6,7-dihydrobenzo[a]quinolizine-3-carboxylic acid] | 519 |  |
| COCC(C)(C)C1Cc2cc(OCCCN3CCCC3=O)c(OC)cc2-c2cc(=O)c(C(=O)O)cn21 (centres unmarked) [Example 12, 10-Methoxy-6-(2-methoxy-1,1-dimethyl-ethyl)-2-oxo-9-[3-(2-oxopyrrolidin-1-yl)propoxy]-6,7-dihydrobenzo[a]quinolizine-3-carboxylic acid] | 190 |  |
| COCC(C)(C)C1Cc2cc(OCCCN(C)C)c(OC)cc2-c2cc(=O)c(C(=O)O)cn21 (centres unmarked) [Example 13, 9-[3-(Dimethylamino)propoxy]-10-methoxy-6-(2-methoxy-1,1-dimethyl-ethyl)-2-oxo-6,7-dihydrobenzo[a]quinolizine-3-carboxylic acid] | 579 |  |
| COCC(C)(C)C1Cc2cc(OCCCCCCNC(=O)OC(C)(C)C)c(OC)cc2-c2cc(=O)c(C(=O)O)cn21 (centres unmarked) [Example 14, 9-[6-(tert-Butoxycarbonylamino)hexoxy]-10-methoxy-6-(2-methoxy-1,1-dimethyl-ethyl)-2-oxo-6,7-dihydrobenzo[a]quinolizine-3-carboxylic acid] | 3 |  |
| COCC(C)(C)C1Cc2cc(OCCCS(C)(=O)=O)c(OC)cc2-c2cc(=O)c(C(=O)O)cn21 (centres unmarked) [Example 15, 10-Methoxy-6-(2-methoxy-1,1-dimethyl-ethyl)-9-(3-methylsulfonylpropoxy)-2-oxo-6,7-dihydrobenzo[a]quinolizine-3-carboxylic acid] | 124 |  |
| COCC(C)(C)C1Cc2cc(OCCCCCCN)c(OC)cc2-c2cc(=O)c(C(=O)O)cn21 (centres unmarked) [Example 16, 9-(6-Aminohexoxy)-10-methoxy-6-(2-methoxy-1,1-dimethyl-ethyl)-2-oxo-6,7-dihydrobenzo[a]quinolizine-3-carboxylic acid] | 68 |  |
| COCC(C)(C)C1Cc2cc(OCCC3CCCN3C)c(OC)cc2-c2cc(=O)c(C(=O)O)cn21 (centres unmarked) [Example 17, 10-Methoxy-6-(2-methoxy-1,1-dimethyl-ethyl)-9-[2-(1-methylpyrrolidin-2-yl)ethoxy]-2-oxo-6,7-dihydrobenzo[a]quinolizine-3-carboxylic acid] | 537 |  |
